Assays:
[1] = Odor of permanently waved hair strands, rinse-off method (base: hair-cure agent); details: for Odor rating vs blank, Day 1, pH 2-3 / Odor rating vs blank, Day 1, pH 4-5 / Odor rating vs blank, Day 2, pH 2-3 / Odor rating vs blank, Day 2, pH 4-5 / Odor rating vs blank, Day 3, pH 2-3 / Odor rating vs blank, Day 3, pH 4-5 / Odor rating vs blank, Day 4, pH 2-3 / Odor rating vs blank, Day 4, pH 4-5: rinse-off hair-cure agent, 5-min contact, table head 0.01 wt. % (text b103: 0.1 wt. %), each symbol = one test strand; for Odor rating vs blank, Day 1, pH 2-3 / Odor rating vs blank, Day 1, pH 4-5: Day 1, wet; for Odor rating vs blank, Day 2, pH 2-3 / Odor rating vs blank, Day 2, pH 4-5: Day 2, dry; for Odor rating vs blank, Day 3, pH 2-3 / Odor rating vs blank, Day 3, pH 4-5: Day 3, wet; for Odor rating vs blank, Day 4, pH 2-3 / Odor rating vs blank, Day 4, pH 4-5: Day 4, dry
[2] = Odor of permanently waved hair strands, leave-on method (base: conditioner); details: for Odor rating vs blank, Day 1, pH 2-3 / Odor rating vs blank, Day 1, pH 4-5 / Odor rating vs blank, Day 2, pH 2-3 / Odor rating vs blank, Day 2, pH 4-5 / Odor rating vs blank, Day 3, pH 2-3 / Odor rating vs blank, Day 3, pH 4-5 / Odor rating vs blank, Day 4, pH 2-3 / Odor rating vs blank, Day 4, pH 4-5: test substance 0.01 wt. %; for Odor rating vs blank, Day 1, pH 2-3 / Odor rating vs blank, Day 1, pH 4-5: Day 1, wet; for Odor rating vs blank, Day 1, pH 2-3 / Odor rating vs blank, Day 2, pH 2-3 / Odor rating vs blank, Day 3, pH 2-3 / Odor rating vs blank, Day 4, pH 2-3: pH 2-3, each symbol = one test strand; for Odor rating vs blank, Day 1, pH 4-5 / Odor rating vs blank, Day 2, pH 4-5 / Odor rating vs blank, Day 3, pH 4-5 / Odor rating vs blank, Day 4, pH 4-5: pH 4-5, each symbol = one test strand; for Odor rating vs blank, Day 2, pH 2-3 / Odor rating vs blank, Day 2, pH 4-5: Day 2, dry; for Odor rating vs blank, Day 3, pH 2-3 / Odor rating vs blank, Day 3, pH 4-5: Day 3, wet; for Odor rating vs blank, Day 4, pH 2-3 / Odor rating vs blank, Day 4, pH 4-5: Day 4, dry; for odor-reducing action (efficacy), in words: pH 2-3 and pH 4-5, summary of Table 1
Experimental: The test substances were tested on hair that had been freshly permanently waved. To this end, hair braids were cut into 2.5-cm pieces, bleached for 30 minutes and washed with perfume-free shampoo. To obtain fully odorless strands, the strands were then dipped three times into a mixture of isopropanol 25%/ethanol 25%/water 50%. The hair was kept for 24 hours in a conditioning room (20° C. at 85% relative humidity) and then cut to a weight of 2 g. This was followed by an odor test. Ten strands per post-treatment agent to be tested were wound onto rollers (diameter: 13 mm) and kept overnight in the conditioning room (20° C. at 85% relative humidity). The next morning, these strands were subjected to permanent waving.
Ten rollers holding 2 g of hair each were placed in a crystallizing dish and covered twice with 20 g of a commercial wave lotion, the rollers being turned over after the first 20 g to ensure uniform distribution. The rollers were then placed in a drier at 40° C. for 15 min, after which they were rinsed with water for 5 minutes namely for 2 min under running city water and for an additional 3 min by immersing them in water. The hair was then dabbed dry with a paper napkin. Afterward, the fixation was carried out with the aid of a commercial foam fixative. To this end, the rollers were immersed for 3 min in 500 mL of fixing solution. Excess fixing solution was then poured off, and the rollers were allowed to stand for an additional 7 minutes. They were then again rinsed with water for 5 min (see above) and dabbed dry with a paper napkin. Finally, the hair was detached from the roller and placed in a drier at 40° C. for 60 minutes.
To test the efficacy of the compounds as permanent wave post-treatment agents, the zinc salts and the corresponding zinc-free acids alone were incorporated at two different pH values into common cosmetic product bases. Zinc citrate (trizinc dicitrate) made soluble with a slight excess of citric acid was tested as the reference substance for a zinc salt without the odor-influencing counterion. The oxocarboxylic acids were used both as the sodium salts and in the form of their zinc salts. The pH values were then adjusted with citric acid or NaOH.
In the following example, 0.5 mL of a leave-on conditioner was massaged into the freshly permanently waved hair (2 g in each case), and after a contact time of 10 min the odor was evaluated by five test subjects (Table 1). In each case, the odor evaluation was performed on 3 test strands. The average values of the evaluation results are tabulated.
Each symbol stands for one test strand. • ◯=odor indistinguishable from that of blank • +=odor better than that of blank • ++=odor appreciably better than that of blank/odorless

[3] = Various odor tests carried out on permanently waved hair (general statements); details: sulfur odor of permanently waved hair; general statement

Compound | Odor rating vs blank, Day 1, pH 2-3 [1] | Odor rating vs blank, Day 1, pH 4-5 [1] | Odor rating vs blank, Day 2, pH 2-3 [1] | Odor rating vs blank, Day 2, pH 4-5 [1] | Odor rating vs blank, Day 3, pH 2-3 [1] | Odor rating vs blank, Day 3, pH 4-5 [1] | Odor rating vs blank, Day 4, pH 2-3 [1] | Odor rating vs blank, Day 4, pH 4-5 [1] | Odor rating vs blank, Day 1, pH 2-3 [2] | Odor rating vs blank, Day 1, pH 4-5 [2] | Odor rating vs blank, Day 2, pH 2-3 [2] | Odor rating vs blank, Day 2, pH 4-5 [2] | Odor rating vs blank, Day 3, pH 2-3 [2] | Odor rating vs blank, Day 3, pH 4-5 [2] | Odor rating vs blank, Day 4, pH 2-3 [2] | Odor rating vs blank, Day 4, pH 4-5 [2] | odor-reducing effect on permanently waved hair, in words [3] | odor-reducing action (efficacy), in words [2] | odor-reducing effect, in words ([1]; lowest concentrations in rinse-off products, applied immediately after permanent wave treatment or up to four days later)
O=CC(=O)[O-].[Na+] [Na glyoxylate] | ∘ ∘ ∘ | ∘ ∘ ∘ | + ∘ + | + ∘ + | ∘ ∘ + | + + ∘ | ∘ + + | ∘ + + | ∘ + + | ∘ + ∘ | + + ∘ | + + ∘ | ∘ ∘ + | ∘ + + | ∘ + + | + ∘ + | – | – | –
CC(=O)CCC(=O)[O-].[Na+] [Na levulinate] | + + + | + ∘ + | + + ∘ | + ∘ ∘ | ∘ + + | + ∘ ∘ | ∘ ∘ + | + ∘ ∘ | + + + | + ∘ + | + + + | + ∘ + | ∘ + + | + + ∘ | + + + | + + + | – | – | –
CC(=O)C(=O)[O-].[Na+] [Na pyruvate] | ∘∘ + | ∘ + + | ∘ + + | ∘ + + | ∘ + + | ∘ + + | ∘ + + | ∘ + + | + ∘ + | ∘ ∘ + | ∘ + ∘ | ∘ + ∘ | ∘ + + | ∘ + + | ∘ + + | + + ∘ | – | – | –
O=C([O-])CC(O)(CC(=O)[O-])C(=O)[O-].O=C([O-])CC(O)(CC(=O)[O-])C(=O)[O-].[Zn+2].[Zn+2].[Zn+2] [Trizinc dicitrate, trizinc dicitrate] | ∘ ∘ ∘ | ∘ ∘ + | + ∘ ∘ | ∘ + + | ∘ ∘ + | ∘ + + | ∘ ∘ + | ∘ + + | + ∘ ∘ | ∘ + + | ∘ + ∘ | ∘ + + | ∘ ∘ + | ∘ + + | ∘ + ∘ | + + + | – | – | –
O=CC(=O)[O-].O=CC(=O)[O-].[Zn+2] [Zn glyoxylate] | ∘ ∘ ∘ | ∘ + + | ∘ ∘ ∘ | + ∘ + | ∘ ∘ + | + + ∘ | ∘ ∘ + | ∘ + + | ∘ + + | + ∘ ∘ | ∘ ∘ ∘ | ∘ + + | ∘ ∘ + | + ∘ + | ∘ ∘ + | + + ∘ | – | – | –
CC(=O)C(=O)[O-].CC(=O)C(=O)[O-].[Zn+2] [Zn pyruvate] | ∘ ∘ ∘ | ∘ + ∘ | ∘ ∘ ∘ | + ∘ + | ∘ ∘ ∘ | ∘ + + | ∘ ∘ ∘ | + + + | ∘ + ∘ | + + + | ∘ ∘ ∘ | + + + | ∘ ∘ ∘ | ∘ + + | ∘ ∘ ∘ | + + + | – | – | –
CC(=O)CCC(=O)O [levulinic acid, 4-oxopentanoic acid] | – | – | – | – | – | – | – | – | – | – | – | – | – | – | – | – | effective odor reducer | some odor-reducing action in strong acids | –
zinc levulinate [Zn levulinate] | + + + | ++ ++ and ++ | + + + | + + + | + + + | + + + | + + + | ++ + ++ | + + + | ++ ++ and ++ | + + + | + + ++ | + + + | ++ ++ and ++ | + + + | + ++ and ++ | much more intense than that of any other zinc compound | unique in the entire pH range tested | drastic odor-reducing effect

— patent publication US20080299062A1, “Use of Oxocarboxylic Acids-Containing Combinations for Deodorization” (priority 2004, published 2008)
